Measured values taken from PubChem BioAssay (NCI).
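Exposure lasted 48 hours, with cells grown in 96-well plates and compounds tested at five concentrations. GI50 marks 50% less growth. TGI denotes the concentration required for complete inhibition of growth.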

system: UO-31 renal; experiment: NCI tumour cell line growth inhibition, 48 h

Row | SMILES | TGI
1 | NCc1ccccc1-c1c2nc(c(-c3ccccc3CN)c3ccc([nH]3)c(-c3ccccc3CN)c3nc(c(-c4ccccc4CN)c4ccc1[nH]4)C=C3)C=C2 | 42.6 µM

system: NCI-H23 lung; experiment: NCI tumour cell line growth inhibition, 48 h

Row | SMILES | TGI | GI50
2 | Cn1c(=O)c(-c2ccccc2)c(N=[N+]=[N-])c2ccccc21 | > 100 µM | –
3 | CCC(/C=C/C1OC(=O)C=CC1C)=C\C(C)C/C=C/C(C)=C/C(C)C(=O)C(C)C(O)C(C)C/C(C)=C/C(=O)O (configuration not stated) | 3.87 µM | 0.00652 nM
4 | CC1(C)N=C(N)N=C(N)N1c1ccc(CCc2ccccc2)cc1 | > 100 µM | –
5 | CN(C)CCCN1CCC2(CCC(C(C)(C)C)CC2)CC1 | 21.7 µM | –
6 | Cc1[nH]nc(C(F)(F)F)c1N=NN1CCOCC1 | 15.5 µM | –
7 | S=C(S)NCNC(=S)S.[Zn+2] | > 100 µM | –
8 | CC1(CCOCc2ccccc2)NC(=O)NC1=O (configuration not stated) | > 100 µM | –
9 | O=C(Cn1c[n+](CC(=O)c2ccc(-c3ccccc3)cc2)c2ccccc21)Nc1cccc2cccnc12 | 3.02 µM | 1520 nM
10 | CC(OC(C)(C)C)[C@H](NC(=O)OCC(Cl)(Cl)Cl)C(=O)O (some centres not stated) | > 100 µM | –
11 | O=C(O)CCC(NC(=O)c1ccc(Nc2nc3cc(C(F)(F)F)ccc3nc2-c2ccccc2)cc1)C(=O)O (configuration not stated) | > 100 µM | –
12 | c1ccc(CCNc2ccccn2)nc1 | > 100 µM | –
13 | NCc1ccccc1-c1c2nc(c(-c3ccccc3CN)c3ccc([nH]3)c(-c3ccccc3CN)c3nc(c(-c4ccccc4CN)c4ccc1[nH]4)C=C3)C=C2 | 58.4 µM | –

system: A549 NSCLC; experiment: NCI tumour cell line growth inhibition, 48 h

Row | SMILES | TGI | GI50
14 | Cn1c(=O)c(-c2ccccc2)c(N=[N+]=[N-])c2ccccc21 | > 100 µM | –
15 | CCC(/C=C/C1OC(=O)C=CC1C)=C\C(C)C/C=C/C(C)=C/C(C)C(=O)C(C)C(O)C(C)C/C(C)=C/C(=O)O (configuration not stated) | 3.96 µM | 0.0164 nM
16 | CC1(C)N=C(N)N=C(N)N1c1ccc(CCc2ccccc2)cc1 | > 100 µM | –
17 | CN(C)CCCN1CCC2(CCC(C(C)(C)C)CC2)CC1 | 12.1 µM | –
18 | Cc1[nH]nc(C(F)(F)F)c1N=NN1CCOCC1 | 24.7 µM | –
19 | S=C(S)NCNC(=S)S.[Zn+2] | > 100 µM | –
20 | CC1(CCOCc2ccccc2)NC(=O)NC1=O (configuration not stated) | > 100 µM | –
21 | O=C(Cn1c[n+](CC(=O)c2ccc(-c3ccccc3)cc2)c2ccccc21)Nc1cccc2cccnc12 | 13 µM | 3020 nM
22 | CC(OC(C)(C)C)[C@H](NC(=O)OCC(Cl)(Cl)Cl)C(=O)O (some centres not stated) | > 100 µM | –
23 | O=C(O)CCC(NC(=O)c1ccc(Nc2nc3cc(C(F)(F)F)ccc3nc2-c2ccccc2)cc1)C(=O)O (configuration not stated) | > 100 µM | –
24 | c1ccc(CCNc2ccccn2)nc1 | > 100 µM | –
25 | NCc1ccccc1-c1c2nc(c(-c3ccccc3CN)c3ccc([nH]3)c(-c3ccccc3CN)c3nc(c(-c4ccccc4CN)c4ccc1[nH]4)C=C3)C=C2 | 46.9 µM | –

system: SNB-19 CNS; experiment: NCI tumour cell line growth inhibition, 48 h

Row | SMILES | TGI | GI50
26 | Cn1c(=O)c(-c2ccccc2)c(N=[N+]=[N-])c2ccccc21 | > 100 µM | –
27 | CCC(/C=C/C1OC(=O)C=CC1C)=C\C(C)C/C=C/C(C)=C/C(C)C(=O)C(C)C(O)C(C)C/C(C)=C/C(=O)O (configuration not stated) | 13.2 µM | 0.0253 nM
28 | CC1(C)N=C(N)N=C(N)N1c1ccc(CCc2ccccc2)cc1 | > 41.1 µM | –
29 | CN(C)CCCN1CCC2(CCC(C(C)(C)C)CC2)CC1 | 11.8 µM | –
30 | Cc1[nH]nc(C(F)(F)F)c1N=NN1CCOCC1 | 30.4 µM | –
31 | C=C(C)[C@@H]1CC[C@]2(C(=O)NC3CCCCC3)CC[C@]3(C)[C@H](CC[C@@H]4[C@@]5(C)CCCNC(C)(C)[C@@H]5CC[C@]43C)[C@@H]12 | 33.3 µM | 5510 nM
32 | S=C(S)NCNC(=S)S.[Zn+2] | > 100 µM | –
33 | CC1(CCOCc2ccccc2)NC(=O)NC1=O (configuration not stated) | > 100 µM | –
34 | CC(OC(C)(C)C)[C@H](NC(=O)OCC(Cl)(Cl)Cl)C(=O)O (some centres not stated) | > 100 µM | –
35 | O=C(O)CCC(NC(=O)c1ccc(Nc2nc3cc(C(F)(F)F)ccc3nc2-c2ccccc2)cc1)C(=O)O (configuration not stated) | > 100 µM | –
36 | c1ccc(CCNc2ccccn2)nc1 | > 100 µM | –
37 | NCc1ccccc1-c1c2nc(c(-c3ccccc3CN)c3ccc([nH]3)c(-c3ccccc3CN)c3nc(c(-c4ccccc4CN)c4ccc1[nH]4)C=C3)C=C2 | 43.5 µM | –

system: UACC-62 melanoma; experiment: NCI tumour cell line growth inhibition, 48 h

Row | SMILES | TGI | GI50
38 | Cn1c(=O)c(-c2ccccc2)c(N=[N+]=[N-])c2ccccc21 | > 100 µM | –
39 | CCC(/C=C/C1OC(=O)C=CC1C)=C\C(C)C/C=C/C(C)=C/C(C)C(=O)C(C)C(O)C(C)C/C(C)=C/C(=O)O (configuration not stated) | – | 0.00223 nM
40 | CC1(C)N=C(N)N=C(N)N1c1ccc(CCc2ccccc2)cc1 | > 100 µM | –
41 | CN(C)CCCN1CCC2(CCC(C(C)(C)C)CC2)CC1 | 3.33 µM | –
42 | Cc1[nH]nc(C(F)(F)F)c1N=NN1CCOCC1 | 23.5 µM | –
43 | S=C(S)NCNC(=S)S.[Zn+2] | > 100 µM | –
44 | CC1(CCOCc2ccccc2)NC(=O)NC1=O (configuration not stated) | > 100 µM | –
45 | O=C(Cn1c[n+](CC(=O)c2ccc(-c3ccccc3)cc2)c2ccccc21)Nc1cccc2cccnc12 | 2.84 µM | 1400 nM
46 | CC(OC(C)(C)C)[C@H](NC(=O)OCC(Cl)(Cl)Cl)C(=O)O (some centres not stated) | > 100 µM | –
47 | O=C(O)CCC(NC(=O)c1ccc(Nc2nc3cc(C(F)(F)F)ccc3nc2-c2ccccc2)cc1)C(=O)O (configuration not stated) | > 100 µM | –
48 | c1ccc(CCNc2ccccn2)nc1 | > 100 µM | –
49 | NCc1ccccc1-c1c2nc(c(-c3ccccc3CN)c3ccc([nH]3)c(-c3ccccc3CN)c3nc(c(-c4ccccc4CN)c4ccc1[nH]4)C=C3)C=C2 | 54.1 µM | –

system: SW-620 colon; experiment: NCI tumour cell line growth inhibition, 48 h

Row | SMILES | TGI | GI50
50 | Cn1c(=O)c(-c2ccccc2)c(N=[N+]=[N-])c2ccccc21 | > 100 µM | –
51 | CCC(/C=C/C1OC(=O)C=CC1C)=C\C(C)C/C=C/C(C)=C/C(C)C(=O)C(C)C(O)C(C)C/C(C)=C/C(=O)O (configuration not stated) | 6.29 µM | 0.00244 nM
52 | CC1(C)N=C(N)N=C(N)N1c1ccc(CCc2ccccc2)cc1 | > 100 µM | –
53 | CN(C)CCCN1CCC2(CCC(C(C)(C)C)CC2)CC1 | 7.87 µM | –
54 | Cc1[nH]nc(C(F)(F)F)c1N=NN1CCOCC1 | 5.64 µM | –
55 | C=C(C)[C@@H]1CC[C@]2(C(=O)NC3CCCCC3)CC[C@]3(C)[C@H](CC[C@@H]4[C@@]5(C)CCCNC(C)(C)[C@@H]5CC[C@]43C)[C@@H]12 | 3.15 µM | 1670 nM
56 | S=C(S)NCNC(=S)S.[Zn+2] | > 100 µM | –
57 | CC1(CCOCc2ccccc2)NC(=O)NC1=O (configuration not stated) | > 100 µM | –
58 | O=C(Cn1c[n+](CC(=O)c2ccc(-c3ccccc3)cc2)c2ccccc21)Nc1cccc2cccnc12 | 3.05 µM | 1620 nM
59 | CC(OC(C)(C)C)[C@H](NC(=O)OCC(Cl)(Cl)Cl)C(=O)O (some centres not stated) | > 100 µM | –
60 | O=C(O)CCC(NC(=O)c1ccc(Nc2nc3cc(C(F)(F)F)ccc3nc2-c2ccccc2)cc1)C(=O)O (configuration not stated) | > 100 µM | –
61 | c1ccc(CCNc2ccccn2)nc1 | > 100 µM | –
62 | NCc1ccccc1-c1c2nc(c(-c3ccccc3CN)c3ccc([nH]3)c(-c3ccccc3CN)c3nc(c(-c4ccccc4CN)c4ccc1[nH]4)C=C3)C=C2 | > 100 µM | –
